Measured values reported in PMC5430874 (Scientific Reports, 2017).
Where a chain is given by its changes, count along the chain named. Like-named read-outs stand apart in the source and are kept apart here. One block for each molecule: values may come before it.

Experiments:
GPR139 E108A^3×32 = biological target: T1, GPR139 E108A^3×32 (Homo sapiens, UniProt Q6DWJ6, E108A); experiment: Fluo-4 Ca2+-assay, GPR139 mutant E108A; type: cell-based; settings: for EC50: E108A mutant
T1 construct: mGluR5 signal peptide (N); expressed in transfected cells; host or cells: HEK293
T1 sequence (Q6DWJ6 2-353 E108A limits assumed): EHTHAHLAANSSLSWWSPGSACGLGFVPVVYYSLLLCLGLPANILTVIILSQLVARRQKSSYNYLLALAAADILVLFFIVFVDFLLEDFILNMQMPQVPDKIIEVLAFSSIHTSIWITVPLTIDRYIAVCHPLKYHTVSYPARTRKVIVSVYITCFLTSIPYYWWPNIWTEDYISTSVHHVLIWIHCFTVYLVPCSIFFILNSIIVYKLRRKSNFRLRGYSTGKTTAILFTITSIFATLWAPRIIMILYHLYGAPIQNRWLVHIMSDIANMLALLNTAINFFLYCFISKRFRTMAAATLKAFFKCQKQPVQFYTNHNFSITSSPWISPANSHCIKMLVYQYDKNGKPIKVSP
Excerpt: (§1) To study the influence of specific amino acids in the predicted binding pocket on receptor function, the desired mutations were introduced into an N-terminally c-myc-tagged wild type human GPR139 (NM_001002911.3) in the pEGFP-N1 vector (BD Biosciences)[32], [33]. As previously described, these plasmids carry the signal peptide of mGluR5 to promote cell surface expression followed by a c-myc epitope to enable detection of total and surface expression by ELISA, followed by an engineered MluI and NotI site for easy insertion of the receptor of interest. Furthermore, the start-codon in the GPR139 sequence was deleted to ensure c-myc-tagging. Mutagenesis was designed in Serial Cloner 2.6 (© Franck Perez [SerialBasics]) and carried out by GenScript (USA). All mutated residues are illustrated in Supplementary Fig. 1b. An untagged GPR139(WT) in pEGFP-N1 was also generated to ensure that the c-myc-tag had no influence on GPR139(WT) function.
(§2) All GPR139 mutants were transfected into HEK293 cells. The HEK293 cells were grown in Dulbecco’s modified Eagle’s medium (DMEM) (Gibco, 41965) supplemented with 10% dialyzed fetal bovine serum (Gibco, 26400, United States origin), 100 units/mL penicillin and 100 μg/mL streptomycin (Gibco, 15140). HEK293 cells were reverse transfected using Lipofectamine2000 (Invitrogen). More specifically two mixtures were made: 1) 10 ng DNA/well + 25 μL Opti-MEM/well and 2) […] Lipofectamine2000/well + 25 μL Opti-MEM/well. The two mixtures were mixed and 50 μL/well was added directly in black 96-well plates with flat clear bottoms for the Fluo-4 Ca^2+-assay (Corning, Falcon, 353219) or in white Opaque 96-well Microplate (PerkinElmer Life, 6005680) for ELISA. 100 μL containing 20,000 cells were added to each well and incubated 48 hours before assays. All plates were coated with poly-D-lysine.
(§3) Compound 1a (1a) was kindly provided by H. Lundbeck A/S, Denmark. […] Both compounds were dissolved to 20 mM in DMSO (Sigma, D2650) and subsequently diluted in a HEPES buffer (HBSS (Gibco, 14025) supplemented with 20 mM HEPES + 1 mM MgCl2 + 1 mM CaCl2, pH = 7.4) to a final concentration of 0.5% DMSO in the Fluo-4 Ca^2+-assay. The DMSO level was kept constant for all concentrations of both compounds. DMSO was confirmed not to have any activity by itself at this concentration. L-Trp (T0254) and L -Phe (P2126) were obtained from Sigma-Aldrich and dissolved in buffer.
(§4) The Ca^2+ measurements were preformed using the Fluo-4 NW Calcium Assay Kit (Invitrogen, Molecular Probes, F36206) as previously described. Briefly, the Fluo-4 dye loading solution was prepared according to the manufacturer’s instructions by dissolving it in HEPES-buffer supplemented with 2.5 mM probenecid. 50 μL dye loading solution was added to each well. Cells were incubated with the Fluo-4 dye for 60 min at 37 °C, then washed with 100 μL HEPES-buffer. 100 μL HEPES-buffer supplemented with 2.5 mM probenecid was then added to each well and incubated in 10 minutes at 37 °C before measurement. […] Intracellular calcium changes were recorded as indicated on either a NOVOstar (BMG Labtech) at 37 °C with an excitation filter of 485 nm and an emission filters 520 nm or a FlexStation 3 Benchtop Multi-Mode Microplate Reader (Molecular Devices) at 37 °C with an excitation wavelength of 485 nm and emission of 525 nm.
(§5) All pharmacological data have been analyzed by using Prism 6.0 (GraphPad Software Inc., San Diego). Fitting of concentration response curves was performed by non-linear regression log(agonist) vs. response (four parameters). Pooled data are shown with standard error of the mean (S.E.M.) and data showing one representative are shown with standard deviation (S.D.). Changes in potency (pEC50) and span of myc-GPR139(WT) in comparison to untagged GPR139(WT) was statistically analyzed with a paired t-test and significance was accepted at p < 0.05. The ELISA data were normalized to surface expression of myc-GPR139(WT) (100%). […]

GPR139 W241H^6×48 = biological target: T2, GPR139 W241H^6×48 (Homo sapiens, UniProt Q6DWJ6, W241H); experiment: Fluo-4 Ca2+-assay, GPR139 mutant W241H; type: cell-based; design: key to Emax ± SEM: NE: no effect (loss of activity); settings: for EC50: W241H mutant
T2 construct: mGluR5 signal peptide (N); expressed in transfected cells; host or cells: HEK293
T2 sequence (Q6DWJ6 2-353 W241H limits assumed): T1 sequence (Q6DWJ6 2-353 E108A limits assumed) with A107E, W240H
Excerpt: as §1, §2, §3, §4, §5

[1] = three independent experiments, read-out: pEC50 ± SEM (converted)
[2] = only one experiment, read-out: pEC50 (converted)

EC50 (GPR139 E108A^3×32; [1]): 0.151 µM
Emax (GPR139 E108A^3×32; read-out: Emax ± SEM): 112 ± 10%
Emax at 100 µM (GPR139 W241H^6×48): 12 ± 3%
EC50 (GPR139 W241H^6×48): > 100 µM
SMILES: C[C@@H](NC(=O)CNC(=O)c1cccc(Cl)c1)c1ccccc1 (racemic) [Compound 7c]

change of potency (GPR139 E108A^3×32; E108A mutant versus WT): no effect
EC50 (GPR139 E108A^3×32; [1]): 0.209 µM
Emax (GPR139 E108A^3×32; E108A, normalized to buffer (0%) and 8 μM 1a (100%) on WT, read-out: Emax ± SEM): 151 ± 9%
EC50 (GPR139 W241H^6×48): > 7.94 µM
change of potency (GPR139 W241H^6×48; W241H mutant versus WT): markedly reduced potency
Emax at 8 µM (GPR139 W241H^6×48; W241H, at 8 μM, normalized to buffer (0%) and 8 μM 1a (100%) on WT): 27 ± 10%
SMILES: COc1cc(OC)cc(C(=O)NNC(=O)Nc2cccc3ccccc23)c1 [Compound 1a]

EC50 (GPR139 E108A^3×32; [2]): 251 µM
Emax (GPR139 E108A^3×32; E108A, normalized to buffer (0%) and 30 mM Phe (100%) on WT, n=1, read-out: Emax): 127%
EC50 (GPR139 W241H^6×48): > 31600 µM
Emax ± SEM (GPR139 W241H^6×48; W241H, at 30 mM, normalized to buffer (0%) and 30 mM Phe (100%) on WT): NE^##
SMILES: N[C@@H](Cc1ccccc1)C(=O)O [L-Phe, phenylalanine]

SMILES: N[C@@H](Cc1c[nH]c2ccccc12)C(=O)O [L-Trp, tryptophan]
EC50 (GPR139 E108A^3×32; [2]): 166 µM
Emax (GPR139 E108A^3×32; E108A, normalized to buffer (0%) and 10 mM Trp (100%) on WT, n=1, read-out: Emax): 125%
EC50 (GPR139 W241H^6×48): > 10000 µM
Emax ± SEM (GPR139 W241H^6×48; W241H, at 10 mM, normalized to buffer (0%) and 10 mM Trp (100%) on WT): NE^#
